In publication PMC9321663, “The DevTox Germ Layer Reporter Platform: An Assay Adaptation of the Human Pluripotent Stem Cell Test” (Toxics, 2022):
Read-outs that look alike come from different tables or passages of the source.

Columns and labels:
[1] = tested on: SOX17 (endoderm marker) in RUES2-GLR cells; test: DevTox GLR-Endo assay: decrease in percent SOX17-positive cells (AEID 3094, Sox17_dn); conditions: for Emax / AC50: Homo sapiens; for DevTox-GLR Endo ACC: activity concentration at cutoff, SOX17-positive cells
Procedure: (§1) The total test chemical incubation period was 48 h.
(§2) Assay plate controls included non-differentiated pluripotent cells maintained in complete Essential 8 Flex medium (baseline control), endoderm differentiated cells (differentiation control), endoderm differentiated cells treated with DMSO (0.2%) (solvent control), and TGF-ß receptor inhibitor SB431542 (1 µM)-treated cells (developmental toxicant-positive control) (Figure S3). All experiments were completed with a minimum of four biological replicates (n = 4).
(§3) (Supplementary Materials).

RUES2-GLR cells = test: DevTox GLR-Endo assay: decrease in total cell count, cytotoxicity (AEID 3098, CellCount_dn); conditions: for Emax: Homo sapiens, read-out: Cell Count % Max Inhibition
Procedure: as §1, §2, §3

[2] = tested on: SOX17 (endoderm marker) in RUES2-GLR cells; test: DevTox GLR-Endo assay: increase in percent SOX17-positive cells (AEID 3093, Sox17_up); format: cell-based, human; conditions: for Emax: Homo sapiens
Procedure: as §1, §3

[3] = tested on: BRA (mesoderm marker) in RUES2-GLR cells; test: DevTox GLR-Endo assay: increase in percent BRA-positive cells (AEID 3096, Bra_up); format: cell-based, human; design: tp (winning model): unit not given here; conditions: for ga (winning model): tcpl plot AEID3096, gain parameter of winning curve fit (log concentration, µM axis); for ga (winning model) / tp (winning model): hit calls only; for tp (winning model): tcpl plot AEID3096, top of winning curve fit
Procedure: as §1, §3

[4] = cited from earlier work; for Development Toxicant Classification: Table S2; for Classification: developmental toxicant classification (Teratogen / Non-Teratogen) of reference and training chemicals, ref DOI per chemical: 10.1093/toxsci/kft239, 10.1093/toxsci/kfaa014, 10.1177/026119290203000204, 10.1038/s41598-020-59542-x; for DT Class.: developmental toxicant classification, chemicals common with quickPredict
[5] = tested on: SOX2 (ectoderm and pluripotency marker) in RUES2-GLR cells; test: DevTox GLR-Endo assay: increase in percent SOX2-positive cells (AEID 3095, Sox2_up); conditions: for AC50 / Emax: Homo sapiens; for AC50: read-out: ga (winning model); for Emax: read-out: tp (winning model);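 for all read-outs here: cells exposed to test chemicals for 48 h in total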
[6] = read-out: DevTox % Max Inhibition
[7] = read-out: ga (winning model), tcpl plot AEID3094, gain parameter of winning curve fit (log concentration, µM axis), hit calls only (converted)
[8] = Table S2, SOX17-positive cells, cutoff 3*bmad
[9] = Table S2, percent SOX17-positive cells, 48 h exposure
[10] = tcpl plot AEID3093, maximum mean response, read-out: MAX_MEAN
[11] = tcpl plot AEID3093, maximum median response, read-out: MAX_MED
[12] = tcpl plot AEID3096, maximum mean response
[13] = tcpl plot AEID3096, maximum median response
[14] = tcpl plot AEID3095, maximum mean response
[15] = tcpl plot AEID3095, maximum median response
[16] = DevTox GLR-Endo prediction against developmental toxicant classification
[17] = read-out: maximum observed effect level class (% max inhibition)
[18] = Table S2, percent SOX17-positive cells relative to DMSO
[19] = tcpl plot AEID3094, maximum mean response
[20] = tcpl plot AEID3094, maximum median response
[21] = Table S2, cell count relative to DMSO
[22] = tcpl plot AEID3093, maximum mean response
[23] = tcpl plot AEID3093, maximum median response

Cell Count ACC (RUES2-GLR cells; human, 48 h) [µM]	Molecule	Emax [1, 6] [%]	Emax ([1]; read-out: MAX_MEAN) [%]	Emax ([1]; read-out: MAX_MED) [%]	Emax ([1]; read-out: tp (winning model)) [%]	Hit Call [1, 8]	DevTox ACC [1, 9] [µM]	DevTox-GLR Endo ACC ([1]; 48 h exposure) [µM]	HIT−CALL ([1]; tcpl plot AEID3094, COFF 20.3)	Emax (RUES2-GLR cells) [%]	Emax [2, 10] [%]	Emax [2, 11] [%]	HIT−CALL ([2]; tcpl plot AEID3093, COFF 20.3)	HIT−CALL ([3]; tcpl plot AEID3096, COFF 0.774)	MAX_MEAN [3, 12] [Percent Activity]	MAX_MED [3, 13] [Percent Activity]	Classification [4]	MAX_MEAN [5, 14] [Percent Activity]	MAX_MED [5, 15] [Percent Activity]	other results
191.824	O=C1NC(=O)C(c2ccccc2)(c2ccccc2)N1	21	19.1	21	32.6	Positive	201.562	201.56	1	22.6	11.2	11.7	0	0	0.943	0.909	Teratogen	0.502	0.532	AC50 [1, 7]: 191 µM; DevTox-GLR Endo CC (RUES2-GLR cells; human, 48 h): 191.82 µM; Development Toxicant Classification [4]: Positive; DT Class. [4]: Pos
12.6287	CC1=C(/C=C/C(C)=C/C=C/C(C)=C/CO)C(C)(C)CCC1 [Retinol]	94.5	94.3	94.5	117	Positive	13.0451	13.05	1	97.3	1.1	1.06	0	–	–	–	Non-Teratogen	23.5	25.3	hit call designation (in words) [1, 16]: false positive; AC50 [1, 7]: 33.9 µM; Emax [1, 17]: 80 to 100%; DevTox-GLR Endo CC (RUES2-GLR cells; human, 48 h): 12.63 µM; Development Toxicant Classification [4]: Negative; DT Class. [4]: Neg; AC50 [5]: 46.8 µM; Emax [5]: 26%
–	D-Camphor	–	–	–	–	Negative	>200	–	0	–	–	–	0	1	0.906	0.891	–	0.902	0.451	DevTox % Max Inhibition [1, 18]: 9.33%; MAX_MEAN [1, 19]: 8.81 Percent Activity; MAX_MED [1, 20]: 9.33 Percent Activity; Cell Count % Max Inhibition (RUES2-GLR cells; [21]): 7.562%; MAX_MEAN [2, 22]: 7.36 Percent Activity; MAX_MED [2, 23]: 11.6 Percent Activity; ga (winning model) [3]: −7; tp (winning model) [3]: 0.81; HIT−CALL [5]: 0
–	CC(=O)CC(c1ccccc1)c1c(O)c2ccccc2oc1=O (stereo not drawn) [Warfarin]	26.9	26.8	26.9	26.8	Positive	93.3273	93.33	1	19.1	11.3	11.6	0	1	0.949	0.975	–	0.566	0.495	AC50 [1, 7]: 81.3 µM; Cell Count ACC (RUES2-GLR cells; Table S2, 48 h exposure): 197.749 µM; DevTox-GLR Endo CC (RUES2-GLR cells; concentration at cell count cutoff, 48 h exposure): 197.75 µM
–	C=CC(N)=O [Acrylamide]	–	–	–	–	Negative	>200	–	0	–	–	–	0	1	1.03	1.06	–	0.47	0.417	DevTox % Max Inhibition [1, 18]: 9.423%; MAX_MEAN [1, 19]: 8.79 Percent Activity; MAX_MED [1, 20]: 9.42 Percent Activity; Cell Count % Max Inhibition (RUES2-GLR cells; [21]): 16.9643%; MAX_MEAN [2, 22]: 6.64 Percent Activity; MAX_MED [2, 23]: 7.31 Percent Activity; ga (winning model) [3]: −6.98; tp (winning model) [3]: 0.908
>200	O=C(O)c1cc(/N=N/c2ccc(S(=O)(=O)Nc3ccccn3)cc2)ccc1O [Sulfasalazine]	11.8	9.93	11.8	–	Negative	>200	–	0	8.86	8.6	8.79	0	0	0.92	0.948	–	1.38	0.57	–
>200	CC(=O)Nc1ccc(O)cc1 [Acetaminophen]	10.5	11.3	10.5	–	Negative	>200	–	0	13.1	11.3	10.3	0	0	0.829	0.865	–	0.992	0.603	effect on SOX17-positive cells (in words) ([1]; 48 h exposure during directed endoderm differentiation): no observed effect
–	OCCO [Ethylene Glycol]	–	–	–	–	–	–	–	–	–	–	–	–	–	–	–	–	–	–	DevTox % Max Inhibition [1]: 6.931%; DevTox ACC [1]: >200 µM; HIT−CALL [1]: 0; Hit Call [1]: Negative; MAX_MEAN [1]: 6.33; MAX_MED [1]: 6.93; hit call designation (in words) [1]: false negative; maximum observed effect level class (% max inhibition) [1]: weak (key: high (80–100% max inhibition); moderate (20–80% max inhibition); weak (0–20% max inhibition)); Cell Count % Max Inhibition (RUES2-GLR cells): 7.044%; Cell Count ACC (RUES2-GLR cells): >200 µM; HIT−CALL [2]: 0; MAX_MEAN [2]: 15.9; MAX_MED [2]: 16.8; HIT−CALL [3]: 0; MAX_MEAN [3]: 0.895; MAX_MED [3]: 0.908; HIT−CALL [5]: 0; MAX_MEAN [5]: 1.02; MAX_MED [5]: 0.539
–	Oc1cc(O)c2c(c1)OC(c1ccc(O)c(O)c1)C(O)C2 (stereo not drawn) [Cianidanol (Catechin)]	–	–	–	–	–	–	–	–	–	–	–	–	–	–	–	Non-Teratogen	–	–	–
–	CCCCOC(=O)c1ccc(O)cc1 [Butylparaben, 4−Hydroxybenzoic acid butyl ester]	102	101	102	102	Positive	34.4685	34.47	1	91.8	8.67	10.2	0	–	–	–	Non-Teratogen	4.14	4.42	hit call designation (in words) [1, 16]: false positive; AC50 ([1]; read-out: ga (winning model)): 50.1 µM; Emax [1, 17]: 80 to 100%; Development Toxicant Classification [4]: Negative; DT Class. [4]: Neg; AC50 [5]: 115 µM; Emax [5]: 6.25%
9.465	Cc1ccc(NC(=O)c2ccc(CN3CCN(C)CC3)cc2)cc1Nc1nccc(-c2cccnc2)n1 [Imatinib]	101	101	101	101	Positive	–	–	1	97.8	7.83	8.88	0	–	–	–	–	6.74	6.89	AC50 [5]: 14.1 µM; Emax [5]: 6.56%
–	NC(=O)c1ccc(-c2nc(-c3ccc4c(c3)OCO4)c(-c3ccccn3)[nH]2)cc1 [SB431542]	–	–	–	–	–	–	–	–	–	–	–	–	–	–	–	–	–	–	effect on SOX2 and SOX17 expression (in words) ([1]; 1 µM positive control, 48 h endoderm induction): loss of both SOX2 and SOX17
–	COC(=O)c1ccccc1C(=O)OC [Dimethyl Phthalate]	6.7	7.41	6.7	–	Negative	>200	–	0	11.9	6.35	7.43	0	0	0.821	0.835	–	1.15	0.556	Cell Count ACC (RUES2-GLR cells; Table S2, 48 h exposure): >200 µM; HIT−CALL [5]: 0
